Tests used:
Human Thrombin = Human Thrombin (Homo sapiens, UniProt P00734); assay: Inhibition of amidase activity of thrombin (Kass); format: biochemical; settings: apparent association constant, mean over a range of concentrations
Experimental: (§1) The assay is carried out by mixing 50 μL buffer (0.03M Tris, 0.15M NaCl, pH 7.4) with 25 μL of bovine thrombin or human thrombin solution (0.21 mg/mL of thrombostat bovine thrombin, Parke-Davis, or purified human thrombin, Enzyme Research Laboratories, South Bend, Ind., at about 8 NIH units/mL, in the same buffer) and 25 μL of test compound in a solvent (in 50% aqueous methanol, v:v). The 150 μL of an aqueous solution of the chromogenic substrate (at 0.25 mg/mL) are added and the rates of hydrolysis of the substrate are measured by monitoring the reactions at 405 nm for the release of p-nitroaniline. Standard curves are constructed by plotting free thrombin concentration against hydrolysis rate. The hydrolysis rates observed with test compounds are then converted to "free thrombin" values in the respective assays by use of the standard curves. The bound thrombin (bound to test compound) is calculated by subtracting the amount of free thrombin observed in each assay from the known initial amount of thrombin used in the assay. The amount of free inhibitor in each assay is calculated by subtracting the number of moles of bound thrombin from the number of moles of added inhibitor (test compound).
The Kass value is the hypothetical equilibrium constant for the reaction between thrombin and the test compound (I). [drawing 54]
(§2) Kass is calculated for a range of concentrations of test compounds and the mean value is reported in units of liter per mole.

factor Xa = molecular target: T1, factor Xa (Homo sapiens, UniProt P00742); assay: Serine protease selectivity, chromogenic substrate (Kass), factor Xa; format: biochemical; settings: substrate N-Benzoyl-Ile-Glu-Gly-Arg-p-nitroanilide
T1 construct: Human factors X, Xa, IXa, XIa, and XIIa are purchased; purchased Enzyme Research Laboratories, South Bend, Ind
T1 sequence (P00742 235-488 limits assumed): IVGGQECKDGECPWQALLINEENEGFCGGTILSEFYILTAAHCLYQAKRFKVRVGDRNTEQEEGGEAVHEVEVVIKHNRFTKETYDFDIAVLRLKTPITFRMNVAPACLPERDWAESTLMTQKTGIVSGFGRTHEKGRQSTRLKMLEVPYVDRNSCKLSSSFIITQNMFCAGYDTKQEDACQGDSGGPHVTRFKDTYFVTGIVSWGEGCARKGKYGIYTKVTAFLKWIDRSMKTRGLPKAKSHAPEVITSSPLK
T1 sequence (P00742 41-179 partner limits assumed): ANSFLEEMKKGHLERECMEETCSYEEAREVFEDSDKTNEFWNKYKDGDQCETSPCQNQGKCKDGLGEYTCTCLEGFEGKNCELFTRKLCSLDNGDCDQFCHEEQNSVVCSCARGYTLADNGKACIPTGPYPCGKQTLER
Experimental: as §1, §2
(§3) By substantially following the procedures described above for human thrombin, and using other human blood coagulation system serine proteases and proteases of the fibrinolytic system with the appropriate chromogenic substrates, identified below, selectivity of the compounds of the present invention with respect to the coagulation factor serine proteases and with respect to the fibrinolytic system serine proteases are evaluated as well as their substantial lack of interference with serine proteases of the fibrinolytic system. Thrombin inhibitors preferably should spare fibrinolysis induced by urokinase, tissue plasminogen activator (t-PA) and streptokinase. This would be important to the therapeutic use of such agents as an adjunct to streptokinase, t-PA or urokinase thrombolytic therapy and to the use of such agents as an endogenous fibrinolysis-sparing (with respect to t-PA and urokinase) antithrombotic agent. In addition to the lack of interference with the amidase activity of the fibrinolytic proteases, such fibrinolytic system sparing can be studied by the use of human plasma clots and their lysis by the respective fibrinolytic plasminogen activators.
(§4) Human factors X, Xa, IXa, XIa, and XIIa are purchased from Enzyme Research Laboratories, South Bend, Ind.; human urokinase from Leo Pharmaceuticals, Denmark; and recombinant activated Protein C (aPC) is prepared at Eli Lilly and Co. substantially according to U.S. Pat. No. 4,981,952. Chromogenic substrates: N-Benzoyl-Ile-Glu-Gly-Arg-p-nitroanilide (for factor Xa); N-Cbz-D-Arg-Gly-Arg-p-nitroanilide (for factor IXa assay as the factor Xa substrate); Pyroglutamyl-Pro-Arg-p-nitroanilide (for Factor XIa and for aPC); H-D-Pro-Phe-Arg-p-nitroanilide (for factor XIIa); and Pyroglutamyl-Gly-Arg-p-nitroanilide (for urokinase); are purchased from KabiVitrum, Stockholm, Sweden, or from Midwest Biotech, Fishers, Ind. Bovine trypsin is purchased from Worthington Biochemicals, Freehold, N.J., and human plasma kallikrein from Kabi Vitrum, Stockholm, Sweden. Chromogenic substrate H-D-Pro-Phe-Arg-p-nitroanilide for plasma kallikrein is purchased from Kabi Vitrum, Stockholm, Sweden. N-Benzoyl-Phe-Val-Arg-p-nitroanilide, the substrate for human thrombin and for trypsin, is synthesized according to procedures described above for the compounds of the present invention, using known methods of peptide coupling from commercially available reactants or purchased from Midwest Biotech, Fishers, Ind.

Trypsin = molecular target: T2, Trypsin (Bos taurus, UniProt P00760); assay: Serine protease selectivity, chromogenic substrate (Kass), trypsin; format: biochemical, bovine; settings: substrate N-Benzoyl-Phe-Val-Arg-p-nitroanilide
T2 construct: Bovine trypsin is purchased; purchased Worthington Biochemicals, Freehold, N.J
T2 sequence (P00760 24-246): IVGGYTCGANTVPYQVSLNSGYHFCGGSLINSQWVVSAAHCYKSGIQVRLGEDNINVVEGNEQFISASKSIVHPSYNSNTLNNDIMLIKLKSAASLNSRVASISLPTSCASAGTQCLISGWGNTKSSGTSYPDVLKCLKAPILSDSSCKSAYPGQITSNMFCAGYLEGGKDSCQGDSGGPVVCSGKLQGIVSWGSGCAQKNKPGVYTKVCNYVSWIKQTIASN
Experimental: as §1, §2, §3, §4

Plasmin = molecular target: T3, Plasmin (Homo sapiens, UniProt P00747); assay: Serine protease selectivity, chromogenic substrate (Kass), plasmin; format: biochemical; settings: substrate H-D-Val-Leu-Lys-p-nitroanilide
T3 construct: Human plasmin is purchased; purchased Boehringer Mannheim, Indianapolis, Ind
T3 sequence (P00747 581-810 limits assumed): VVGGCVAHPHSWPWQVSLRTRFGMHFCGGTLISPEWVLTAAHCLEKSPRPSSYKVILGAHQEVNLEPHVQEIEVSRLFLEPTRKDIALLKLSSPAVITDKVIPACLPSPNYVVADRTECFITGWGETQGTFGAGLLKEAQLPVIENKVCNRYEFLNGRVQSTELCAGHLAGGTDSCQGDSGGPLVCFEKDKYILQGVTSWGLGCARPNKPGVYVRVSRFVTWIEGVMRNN
T3 sequence (P00747 97-580 partner limits assumed): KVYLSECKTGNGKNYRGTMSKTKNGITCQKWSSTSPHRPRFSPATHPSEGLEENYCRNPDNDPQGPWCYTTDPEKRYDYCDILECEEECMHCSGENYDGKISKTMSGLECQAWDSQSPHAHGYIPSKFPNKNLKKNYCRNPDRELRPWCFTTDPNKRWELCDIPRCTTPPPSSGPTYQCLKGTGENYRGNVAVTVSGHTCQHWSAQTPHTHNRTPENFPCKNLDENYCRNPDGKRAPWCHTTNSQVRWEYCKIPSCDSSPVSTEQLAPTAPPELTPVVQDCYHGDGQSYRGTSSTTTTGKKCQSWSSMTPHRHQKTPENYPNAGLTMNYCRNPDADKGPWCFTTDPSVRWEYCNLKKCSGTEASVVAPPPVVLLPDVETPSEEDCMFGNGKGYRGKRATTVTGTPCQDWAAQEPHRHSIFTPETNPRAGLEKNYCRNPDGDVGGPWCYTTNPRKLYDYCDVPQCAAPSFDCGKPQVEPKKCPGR
Experimental: as §1, §2, §3
(§5) Human plasmin is purchased from Boehringer Mannheim, Indianapolis, Ind.; nt-PA is purchased as single chain activity reference from American Diagnostica, Greenwich, Conn.; modified-t-PA6 (mt-PA6) is prepared at Eli Lilly and Company by procedure known in the art (See, Burck, et al., J. Biol. Chem., 265, […] (1990). Plasmin chromogenic substrate H-D-Val-Leu-Lys-p-nitroanilide and tissue plasminogen activator (t-PA) substrate H-D-Ile-Pro-Arg-p-nitroanilide are purchased from Kabi Vitrum, Stockholm, Sweden.

t-PA = molecular target: T4, t-PA (Homo sapiens, UniProt P00750); assay: Serine protease selectivity, chromogenic substrate (Kass), t-PA; format: biochemical; settings: substrate H-D-Ile-Pro-Arg-p-nitroanilide
T4 construct: purchased American Diagnostica, Greenwich, Conn
T4 sequence (P00750 36-562): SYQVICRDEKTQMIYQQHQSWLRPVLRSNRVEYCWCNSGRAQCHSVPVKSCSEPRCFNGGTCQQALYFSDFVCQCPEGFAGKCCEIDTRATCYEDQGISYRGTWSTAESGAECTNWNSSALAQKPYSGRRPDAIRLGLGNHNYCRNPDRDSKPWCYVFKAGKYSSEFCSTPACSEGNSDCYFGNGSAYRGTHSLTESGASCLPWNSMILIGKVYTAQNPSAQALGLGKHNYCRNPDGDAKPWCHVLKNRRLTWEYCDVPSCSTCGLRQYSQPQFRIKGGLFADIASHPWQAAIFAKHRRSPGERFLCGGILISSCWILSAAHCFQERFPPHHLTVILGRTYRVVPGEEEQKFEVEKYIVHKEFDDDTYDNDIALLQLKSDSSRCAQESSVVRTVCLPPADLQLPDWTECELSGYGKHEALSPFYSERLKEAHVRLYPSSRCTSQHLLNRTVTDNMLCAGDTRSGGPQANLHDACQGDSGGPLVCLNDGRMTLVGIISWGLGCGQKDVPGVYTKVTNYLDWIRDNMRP
Experimental: as §1, §2, §3, §5

Human plasma [1] = assay: Human plasma anticoagulation, thrombin time (TT); format: biochemical; settings: concentration required to double the thrombin time, linear extrapolation
Experimental: (§6) Dog plasma and rat plasma is obtained from conscious mixed-breed hounds (either sex, Hazelton-LRE, Kalamazoo, Mich., U.S.A.) or from anesthetized male Sprague-Dawley rats (Harlan Sprague-Dawley, Inc., Indianapolis, Ind., U.S.A.) by venipuncture into 3.8 percent citrate. Fibrinogen is prepared from in-date ACD human blood as the fraction I-2 according to previous procedures and specifications. Smith, Biochem. J., 185, 1-11 (1980); and Smith, et al., Biochemistry, 11, 2958-2967 (1972). Human fibrinogen is also purchased as 98 percent pure/plasmin free from American Diagnostica, Greenwich, Conn. Coagulation reagents ACTIN, Thromboplastin, and Human plasma are from Baxter Healthcare Corp., Dade Division, Miami, Fla. Bovine thrombin from Parke-Davis ([…], Mich.) is used for coagulation assays in plasma.
(§7) Coagulation assay procedures are as previously described. Smith, et al., Thrombosis Research, 50, 163-174 (1988). A CoAScreener coagulation instrument (American LABor, Inc.) is used for all coagulation assay measurements. The prothrombin time (PT) is measured by adding 0.05 mL saline and 0.05 mL Thromboplastin-C reagent to 0.05 mL test plasma. The activated partial thromboplastin time (APTT) is measured by incubation of 0.05 mL test plasma with 0.05 mL Actin reagent for 120 seconds followed by 0.05 mL CaCl2 (0.02M). The thrombin time (TT) is measured by adding 0.05 mL saline and 0.05 mL thrombin (10 NIH units/mL) to 0.05 mL test plasma. The compounds of formula I are added to human or animal plasma over a wide range of concentrations to determine prolongation effects on the APTT, PT, and TT assays. Linear extrapolations are performed to estimate the concentrations required to double the clotting time for each assay.

Human plasma [2] = assay: Human plasma anticoagulation, activated partial thromboplastin time (APTT); format: biochemical; settings: concentration required to double the APTT, linear extrapolation
Experimental: as §6, §7

Human plasma [3] = assay: Human plasma anticoagulation, prothrombin time (PT); format: biochemical; settings: concentration required to double the PT, linear extrapolation
Experimental: as §6, §7

Enzyme Kass, Human Thrombin (Human Thrombin) | Enzyme Kass, Xa (factor Xa) [L/mol × 10^6] | Enzyme Kass, Trypsin (Trypsin) [L/mol × 10^6] | Enzyme Kass, Plasmin (Plasmin) [L/mol × 10^6] | Enzyme Kass, t-PA (t-PA) [L/mol × 10^6] | Compound | 2x Clotting time, TT (Human plasma [1]) [ng/mL] | 2x Clotting time, APTT (Human plasma [2]) | 2x Clotting time, PT (Human plasma [3])
8.7 L/mol × 10^6 | 0.48 | 6.2 | 0.34 | 0.002 | Cl.Cl.NC(N)=NCCCC(C=O)NC(=O)C1CC(Oc2ccccc2)CN1C(=O)C1NCCC2CCCCC21 [Example 14, L-1-Piq-Pro(4-cis-phenoxy)-ArgH.2 HCl] | 460 | 9,000 ng/mL | 18,000 ng/mL
2.8 L/mol × 10^6 | 1.30 | 49.3 | 0.50 | 0.022 | Cl.Cl.N=C(N)NCCC[C@@H](C=O)NC(=O)[C@@H]1C[C@H](Oc2cccc(C(=O)O)c2)CN1C(=O)[C@H]1CCCCN1 (relative stereo) [Example 19, D-hPro-Pro(4-cis-(3-COOH-phenoxy))-ArgH.2 HCl] | 345 | 3,497 ng/mL | 8,822 ng/mL
4.5 L/mol × 10^6 | 0.58 | 52.2 | 0.37 | 0.013 | Cl.Cl.N=C(N)NCCC[C@@H](C=O)NC(=O)[C@@H]1C[C@H](Oc2ccc(C(=O)O)cc2)CN1C(=O)[C@H]1CCCCN1 (relative stereo) [Example 18, D-hPro-Pro(4-cis-(4-COOH-phenoxy))-ArgH.2 HCl] | 248 | 5,969 ng/mL | 10,783 ng/mL

More lines, now with the values behind:

Compound | Enzyme Kass, Human Thrombin (Human Thrombin) | Enzyme Kass, Xa (factor Xa) [L/mol × 10^6] | Enzyme Kass, Trypsin (Trypsin) [L/mol × 10^6] | Enzyme Kass, Plasmin (Plasmin) [L/mol × 10^6] | Enzyme Kass, t-PA (t-PA) [L/mol × 10^6] | 2x Clotting time, TT (Human plasma [1]) [ng/mL] | 2x Clotting time, APTT (Human plasma [2]) | 2x Clotting time, PT (Human plasma [3])
CC(C)CC[C@H]1C[C@@H](C(=O)N[C@H](C=O)CCCNC(=N)N)N(C(=O)[C@H]2CCCCN2)C1.Cl.Cl (relative stereo) [Example 4, D-homoprolyl-L-cis-4-isoamyl-prolyl-L-argininal dihydrochloride] | 8.2 L/mol × 10^6 | 7.9 | 77 | 2.0 | 0.19 | 130 | 630 ng/mL | 3,100 ng/mL
CC(=O)Nc1ccc(O[C@H]2C[C@@H](C(=O)N[C@H](C=O)CCCNC(=N)N)N(C(=O)[C@H]3CCCCN3)C2)cc1.Cl.Cl (relative stereo) [Example 10, D-hPro-Pro(4-cis-(4-AcNH-phenoxy))-ArgH.2 HCl] | 3.0 L/mol × 10^6 | 0.59 | 63 | 3.4 | 0.027 | 480 | 2,200 ng/mL | 10,000 ng/mL
Cl.N=C(N)NCCC[C@@H](C=O)NC(=O)[C@@H]1C[C@@H]2CCCC[C@@H]2N1C(=O)[C@@H](Cc1ccccc1)NCC(=O)O (relative stereo) [Example 24, HOOCCH2 -D-Phe-cis-Ohi-ArgH.HCl] | 1,160 L/mol × 10^6 | 1.70 | 424 | 16.3 | 0.075 | 11 | 490 ng/mL | 727 ng/mL
Cl.Cl.N=C(N)NCCC[C@@H](C=O)NC(=O)[C@@H]1C[C@H](c2ccccc2)CN1C(=O)[C@H]1CCCCN1 (relative stereo) [Example 6, D-hPro-Pro(4-cis-phenyl)-ArgH.2 HCl] | 2.9 L/mol × 10^6 | 5.7 | 240 | 5.3 | 0.065 | 340 | 840 ng/mL | 4,100 ng/mL
CCS(=O)(=O)N[C@@H](C(=O)N1C[C@@H](Oc2ccccc2)C[C@H]1C(=O)N[C@H](C=O)CCCNC(=N)N)c1ccccc1.Cl (relative stereo) [Example 17, EtSO2 -D-Phg-Pro(4-cis-phenoxy)-ArgH.HCl] | 2,200 L/mol × 10^6 | 32 | 910 | 26 | 1.5 | 16 | 380 ng/mL | 1,200 ng/mL
